Like-named read-outs stand apart in the source and are kept apart here.
What was measured:
HEK293 cells = test: RSK signaling immunoblot in HEK293 cells; assay type: cell-based, human
Method: HEK293 cells (Invitrogen, R75007) were seeded at a density of 500,000 cells per well in six-well cell culture plates (Corning Incorporated Costar #3516) in Dulbecco’s modified Eagle medium (DMEM) high-glucose + GlutaMAX Supplement, pyruvate (Thermo Fisher Scientific, catalog no. 31966-021) containing penicillin G (100 U/ml), streptomycin (100 μg/ml), and 10% (v/v) FBS. Once attached, the next day, the media were changed to serum-free and the cells were starved for 16 hours followed by compound treatment with BAY-3827, BI-D1870 (MedChemExpress, #HY-10510) ± 10 μM MK-2206 dihydrochloride (MedChemExpress, #HY-10358) with 30 min incubation at 37°C followed by coincubation with […] (MedChemExpress, #HY-18739) or vehicle for additional 30 min with final assay DMSO concentration of 0.13%. All cell lines used here were tested monthly for mycoplasma and tested negative.
Following compound treatment, the cells were washed with room temperature PBS and lysed on ice with the addition of lysis buffer [50 mM tris-HCl (pH 7.5), 150 mM NaCl, 1 mM EDTA, 1 mM EGTA, 0.27 M sucrose, 1% w/v Triton X-100, 20 mM glycerol-2 phosphate disodium, 50 mM NaF, and 5 mM Na4P2O7.10 H2O] containing proteases and phosphatase inhibitors [0.5 mM phenylmethylsulfonyl fluoride (PMSF), 1 mM benzamidine HCl, leupeptin (1 μg/ml), pepstatin A (1 μg/ml), 1 μM microcystin-LR, 1 mM Na3VO4, and 1 mM DTT]. Lysates were centrifuged at 10,000g, 4°C for 10 min, and protein concentration of the supernatant was determined with the Pierce Bradford Protein Assay Kit (Thermo Fisher Scientific, #23200) and read on the Hidex Plate Reader (software version 0.5.64.0). Samples were prepared in Laemmli sample buffer (tris 200 mM, 8% SDS, EDTA 2 mM, and 40% glycerol) supplemented with 10% DTT and boiled for 5 min at 100°C. Ten micrograms of protein per sample was run on a Criterion tris-glycine polyacrylamide gel (Bio-Rad, #5678095) and transferred to a nitrocellulose membrane. For cell signaling experiments in HEK293 cells, the samples were run on a Criterion TGX stain-free precast gel (Bio-Rad, catalog no. 5678085) with transfer to a polyvinylidene difluoride membrane performed in Bio-Rad Criterion blotter (#1704071) using tris-glycine transfer buffer (Bio-Rad, #1610734) following the manufacturer’s instructions. The membranes were probed at 4°C overnight in a 4% BSA TBS-T solution containing 0.02% sodium azide with the following antibodies where appropriate: Phospho-ACC (Ser^79) (1:1000, Cell Signaling Technology, #3661S), ACC (C83B10) (1:1000, Cell Signaling Technology, #3676S), phospho-Raptor (Ser^792) (1:1000, Cell Signaling Technology, #2083S), Raptor (24C12) (1:1000, Cell Signaling Technology, #2280S), GSK3αβ (1:2000, Sigma-Aldrich, #04-903), phospho-GSK3αβ (Ser^21/9) (D17D2) (1:1000, Cell Signaling Technology, #8566S), ERK1/2 (137F5) (1:1000, Cell Signaling Technology, #4695), phospho-ERK1/2 (Thr^202/Tyr^204) (D13.14.4E) (1:1000, Cell Signaling Technology, #4370), phospho-AMPKα (Thr^172) (40H9) (1:1000, Cell Signaling Technology, #2535S), AMPKα (1:1000, Cell Signaling Technology, #2532S), anti–glyceraldehyde-3-phosphate dehydrogenase antibody (1:5000, Cell Signaling Technology, #G8795), and vinculin (1:1000, Cell Signaling Technology, #13901). Membranes were scanned using the Odyssey Fc LiCor system (exposure time, 30 s) with densitometry analysis performed using LiCor Image Studio Lite normalizing to control loading protein. Figures were made using GraphPad Prism v10.

RSK2 = system: RSK2; set-up: method as in PMID 20439741; conditions: cited from earlier work
AMPK [1] = system: AMPK; set-up: method as in PMID 20439741; conditions: cited from earlier work
RSK1 = system: RSK1; set-up: method as in PMID 20439741; conditions: cited from earlier work
AMPK [2] = system: AMPK; set-up: method as in PMID 29695504; conditions: 20 μM ATP; read-out: median inhibitory concentration (IC50); cited from earlier work
[3] = system: AMPKα1α2+/+ control primary hepatocytes; test: Lipogenesis assay ([14C]-acetate incorporation into fatty acids); assay type: cell-based, mouse
Method: (§1) Mouse hepatocytes were isolated by collagenase perfusion as previously described ([47]). Hepatocytes were seeded in medium Eagle-199 (MEM-199) (#41150, Thermo Fisher Scientific) containing penicillin G (100 U/ml), streptomycin (100 μg/ml), and 10% (v/v) fetal bovine serum (FBS). Hepatocytes were left for attachment (3 to 4 hours) and serum-starved overnight at 37°C with 5% CO2 in MEM-199 supplemented with penicillin G (100 U/ml), streptomycin (100 μg/ml), 10 nM insulin, and 100 nM dexamethasone. […] Cells were then harvested in 0.5 ml of phosphate-buffered saline (PBS), transferred into 1 ml of 40% KOH and 2 ml of methanol followed by 1-hour incubation at 80°C. Lipids were […] by acidifying the samples in 37% HCl and extracted with petroleum ether. Extracts were allowed to evaporate to dryness and then dissolved in Ultima Gold scintillation fluid for determination of [^14C]-acetate incorporation into lipids.

119 kinases = system: 119 kinases; set-up: method as in PMID 21740966; conditions: of 119 kinases, 1 μM; cited from earlier work
[4] = system: pThr172-AMPKα in U2OS cells; test: HTRF assay of Thr172-AMPKα phosphorylation in U2OS cells; assay type: cell-based, human; conditions: 10 μM
Method: (§2) Human osteosarcoma U2OS WT cells were obtained from John Rouse (MRC Protein Phosphorylation and Ubiquitylation Unit, University of Dundee) and were cultured in DMEM high glucose + GlutaMAX Supplement, pyruvate (Thermo Fisher Scientific, catalog no. 31966-021) containing penicillin G (100 U/ml), streptomycin (100 μg/ml), and 10% (v/v) FBS seeding with 50,000 cells per well in a 50-μl volume in culture 96-well cell culture plates (Corning Incorporated costar, #3599). The next day, the media were changed to 50 μl of serum-free media, and 50 μl of serum-free media containing BAY-3827 or BAY-974 was dispensed and left to incubate at 37°C for 30 min. […] HTRF assays using either phospho-Ser^79-ACC1 kit (Revvity, #64ACCPEG) or phospho-Thr^172-AMPK kit (Revvity, #64AMPKPEG) were performed in triplicate in HTRF 96-well low volume white plates (Revvity, #66PL96001) following manufacturer’s instructions. Sealed plates incubated overnight in darkness conditions were scanned at room temperature in Multimode Plate Reader EnVision (PerkinElmer) machine following HTRF setup recommendations for EnVision (Revvity), equipped with a top mirror LANCE/DELFIA single mirror (#412), a UV2 (TRF) 320 excitation filter (#111), emission filter APC 665 (#205), and second emission filter Europium 615 (#203), with a 2000-μs cycle and 60-μs delay, with the number of flashes set to 100 as well as for the 2nd detector. Results were viewed in EnVision Manager software (version 1.13.3009.1401) where 665/615 ratios were calculated, and data were normalized to control condition as %. All assay ratios between control lysate signal/nonspecific signal were greater than 2 as expected of a successful assay following the manufacturer’s instructions. Data were visualized in GraphPad Prism v10.

[5] = system: pSer79-ACC1 in U2OS cells; test: HTRF assay of Ser79-ACC1 phosphorylation in U2OS cells; assay type: cell-based, human; conditions: 10 μM
Method: as §2

[6] = system: AMPKα1α2−/− DKO primary hepatocytes; test: Lipogenesis assay ([14C]-acetate incorporation into fatty acids); assay type: cell-based, mouse
Method: as §1

Q: For NC1(c2ccc(-c3nc4ccn5c(=O)[nH]nc5c4cc3-c3ccccc3)cc2)CCC1 [MK-2206], which “basal pGSK3αβ” value (HEK293 cells; 10 μM) is on record?
A: The value was “reduced”.

Q: With Cc1nc(Nc2n[nH]c3c2CN(C(=O)N[C@H](CN(C)C)c2ccccc2)C3(C)C)c2sccc2n1 [PF-03758309] as the compound, how does the IC50 (RSK2) read?
A: The IC50 was 2 nM.

Q: And the IC50 (AMPK [1])?
A: Its IC50 is 1 nM.

Q: And the IC50 (RSK1)?
A: Its IC50 is 2 nM.

Q: For CCCCCCCCCCCCCC(=O)O[C@@H]1[C@@H](C)[C@@]2(O)[C@@H](C=C(CO)C[C@]3(O)C(=O)C(C)=C[C@@H]23)[C@@H]2C(C)(C)[C@]12OC(C)=O [PMA, phorbol 12-myristate 13-acetate], which “pERK1/2 and pGSK3αβ levels” value (HEK293 cells; 0.1 μM, MK-2206–treated conditions) is on record?
A: The value was “robustly increased”.

Q: With c1cc(-c2cnn3cc(-c4ccc(OCCN5CCCCC5)cc4)cnc23)ccn1 [compound C] as the compound, how does the IC50 (AMPK [2]) read?
A: Its IC50 is […].

Q: What about the “restoration of MK-8722–inhibited lipogenesis” value ([3]; 25 μM, + MK-8722 (10 μM)) of the same compound?
A: Its value is 10%.

Q: And the “number of kinases inhibited more potently than AMPK” value (119 kinases)?
A: The value was 34.

Q: For CNC(=O)c1ccccc1Oc1nc(Nc2cc(OC)c(OC)c(OC)c2)ncc1Br [SBI-0206965], which IC50 (AMPK [2]) is on record?
A: The IC50 was 160 nM.

Q: Which pThr172-AMPK versus vehicle [4] does the source give for O[C@@H]1CO[C@H]2[C@@H]1OC[C@H]2Oc1nc2nc(-c3ccc(-c4ccccc4)cc3)c(Cl)cc2[nH]1 [MK-8722] here?
A: Its pThr172-AMPK versus vehicle is “significant increase”.

Q: And the pSer79-ACC1 versus vehicle [5]?
A: The pSer79-ACC1 versus vehicle was “significant increase”.

Q: And the suppression of lipogenesis ([3]; compound alone, 10 μM)?
A: Its suppression of lipogenesis is over 80%.

Q: And the effect on lipogenesis [6]?
A: Its effect on lipogenesis is “no effect”.

Q: Which “PMA-stimulated pGSK3αβ (surrogate of RSK activity)” value (HEK293 cells; 10 μM, in the presence of MK-2206 (10 μM)) does the source give for CC(C)CCN1c2nc(Nc3cc(F)c(O)c(F)c3)ncc2N(C)C(=O)C1C (stereo not drawn) [BI-D1870] here?
A: Its value is “inhibited to the same extent”.

Q: What about the ACC1 phosphorylation (HEK293 cells; serum-starved HEK293, 1 and 10 μM) of the same compound?
A: The ACC1 phosphorylation was “no effect”.
